Data on 33 molecules can be found in ChEMBL document CHEMBL5291721, “A preclinical secondary pharmacology resource illuminates target-adverse drug reaction associations of marketed drugs” (Nat Commun, 2023).

For test [1], the target named is T1, Corticotropin-releasing factor receptor 1 (Homo sapiens, UniProt P34998).
T1 sequence (P34998 whole entry): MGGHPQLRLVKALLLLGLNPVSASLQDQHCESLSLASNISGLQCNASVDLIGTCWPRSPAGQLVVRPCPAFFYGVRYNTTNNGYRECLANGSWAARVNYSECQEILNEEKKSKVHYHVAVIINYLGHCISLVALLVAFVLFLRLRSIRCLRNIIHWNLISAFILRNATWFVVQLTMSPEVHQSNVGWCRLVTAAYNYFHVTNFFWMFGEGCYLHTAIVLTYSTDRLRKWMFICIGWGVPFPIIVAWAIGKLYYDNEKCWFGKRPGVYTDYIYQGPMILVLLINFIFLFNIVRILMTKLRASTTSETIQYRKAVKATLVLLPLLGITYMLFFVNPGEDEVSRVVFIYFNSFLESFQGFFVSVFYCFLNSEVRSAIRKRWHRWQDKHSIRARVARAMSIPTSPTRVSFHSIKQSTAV

Test [2] has as its target T2, Gastric inhibitory polypeptide receptor (Homo sapiens, UniProt P48546).
T2 sequence (P48546 whole entry): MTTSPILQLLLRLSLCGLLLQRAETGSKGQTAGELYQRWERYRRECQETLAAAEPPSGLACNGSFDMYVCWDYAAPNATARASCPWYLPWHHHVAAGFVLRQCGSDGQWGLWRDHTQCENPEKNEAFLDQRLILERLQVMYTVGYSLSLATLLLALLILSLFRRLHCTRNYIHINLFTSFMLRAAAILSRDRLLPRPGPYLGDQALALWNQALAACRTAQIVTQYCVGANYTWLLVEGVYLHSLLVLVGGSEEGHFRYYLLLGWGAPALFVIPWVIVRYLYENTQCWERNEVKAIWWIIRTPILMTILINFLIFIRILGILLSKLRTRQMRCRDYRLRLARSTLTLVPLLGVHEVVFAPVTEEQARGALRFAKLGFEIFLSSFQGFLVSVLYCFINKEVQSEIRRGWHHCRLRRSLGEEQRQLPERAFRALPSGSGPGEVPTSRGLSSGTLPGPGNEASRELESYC

The target of test [3] is T3, Muscarinic acetylcholine receptor M2 (Homo sapiens, UniProt P08172).
T3 sequence (P08172 whole entry): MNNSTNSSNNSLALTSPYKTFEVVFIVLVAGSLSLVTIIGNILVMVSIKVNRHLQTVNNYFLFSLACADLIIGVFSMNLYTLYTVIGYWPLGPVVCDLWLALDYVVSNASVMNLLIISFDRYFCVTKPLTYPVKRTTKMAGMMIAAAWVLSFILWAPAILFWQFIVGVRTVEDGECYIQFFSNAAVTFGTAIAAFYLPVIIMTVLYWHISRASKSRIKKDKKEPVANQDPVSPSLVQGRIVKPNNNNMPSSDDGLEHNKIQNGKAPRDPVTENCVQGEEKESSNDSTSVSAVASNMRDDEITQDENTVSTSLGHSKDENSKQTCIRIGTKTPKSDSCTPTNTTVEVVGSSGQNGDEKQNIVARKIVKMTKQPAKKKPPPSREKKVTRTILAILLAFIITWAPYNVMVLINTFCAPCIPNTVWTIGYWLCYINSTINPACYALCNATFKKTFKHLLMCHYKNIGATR

Test [4] concerns the target Glucagon receptor (Homo sapiens, UniProt P47871).
For test [5], the target named is 5-hydroxytryptamine receptor 2B (Homo sapiens, UniProt P41595).
Sequence of 5-hydroxytryptamine receptor 2B (P41595 whole entry): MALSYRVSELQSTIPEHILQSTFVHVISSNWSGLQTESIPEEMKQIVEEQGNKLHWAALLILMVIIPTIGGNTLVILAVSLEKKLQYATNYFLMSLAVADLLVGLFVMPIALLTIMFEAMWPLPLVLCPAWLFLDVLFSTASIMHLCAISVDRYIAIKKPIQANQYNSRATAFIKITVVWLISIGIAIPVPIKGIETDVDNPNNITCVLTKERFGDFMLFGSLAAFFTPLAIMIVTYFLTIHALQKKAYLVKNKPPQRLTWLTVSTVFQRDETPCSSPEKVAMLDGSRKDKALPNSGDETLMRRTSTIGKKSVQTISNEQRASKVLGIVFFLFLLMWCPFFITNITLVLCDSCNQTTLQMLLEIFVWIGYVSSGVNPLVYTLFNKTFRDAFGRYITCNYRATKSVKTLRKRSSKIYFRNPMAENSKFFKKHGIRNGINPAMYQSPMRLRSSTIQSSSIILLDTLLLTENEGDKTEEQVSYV
Test [6] addresses Gamma-aminobutyric acid receptor subunit alpha-1/alpha-2/beta-2/gamma-2 (Homo sapiens, UniProt P14867+P18507+P47869+P47870). It is filed as protein-complex assay.
For test [7], the target named is T4, Glucocorticoid receptor (Homo sapiens, UniProt P04150).
T4 sequence (P04150 whole entry): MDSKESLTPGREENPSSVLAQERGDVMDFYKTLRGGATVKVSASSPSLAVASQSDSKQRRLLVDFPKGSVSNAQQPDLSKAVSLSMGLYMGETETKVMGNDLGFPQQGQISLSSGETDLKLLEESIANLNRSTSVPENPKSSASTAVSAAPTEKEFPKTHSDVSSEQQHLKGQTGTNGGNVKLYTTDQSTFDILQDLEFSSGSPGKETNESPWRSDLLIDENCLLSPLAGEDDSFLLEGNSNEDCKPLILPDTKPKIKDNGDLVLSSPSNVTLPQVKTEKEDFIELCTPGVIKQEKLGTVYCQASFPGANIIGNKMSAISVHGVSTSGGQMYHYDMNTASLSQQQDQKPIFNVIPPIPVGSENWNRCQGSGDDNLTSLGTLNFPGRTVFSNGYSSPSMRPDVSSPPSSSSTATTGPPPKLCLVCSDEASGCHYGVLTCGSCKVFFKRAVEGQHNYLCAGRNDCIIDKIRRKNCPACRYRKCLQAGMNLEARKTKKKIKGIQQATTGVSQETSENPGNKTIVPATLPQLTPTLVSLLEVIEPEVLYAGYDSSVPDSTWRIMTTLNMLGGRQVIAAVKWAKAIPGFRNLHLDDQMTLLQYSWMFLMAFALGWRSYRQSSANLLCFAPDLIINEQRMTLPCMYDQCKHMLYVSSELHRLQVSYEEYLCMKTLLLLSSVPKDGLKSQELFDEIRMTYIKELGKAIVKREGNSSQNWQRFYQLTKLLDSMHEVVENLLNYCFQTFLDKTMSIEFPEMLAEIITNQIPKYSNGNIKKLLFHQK
It is filed as functional.

Molecules are shown by their SMILES.
Further: assay procedure not described here.

Sequence of Glucagon receptor (P47871 whole entry): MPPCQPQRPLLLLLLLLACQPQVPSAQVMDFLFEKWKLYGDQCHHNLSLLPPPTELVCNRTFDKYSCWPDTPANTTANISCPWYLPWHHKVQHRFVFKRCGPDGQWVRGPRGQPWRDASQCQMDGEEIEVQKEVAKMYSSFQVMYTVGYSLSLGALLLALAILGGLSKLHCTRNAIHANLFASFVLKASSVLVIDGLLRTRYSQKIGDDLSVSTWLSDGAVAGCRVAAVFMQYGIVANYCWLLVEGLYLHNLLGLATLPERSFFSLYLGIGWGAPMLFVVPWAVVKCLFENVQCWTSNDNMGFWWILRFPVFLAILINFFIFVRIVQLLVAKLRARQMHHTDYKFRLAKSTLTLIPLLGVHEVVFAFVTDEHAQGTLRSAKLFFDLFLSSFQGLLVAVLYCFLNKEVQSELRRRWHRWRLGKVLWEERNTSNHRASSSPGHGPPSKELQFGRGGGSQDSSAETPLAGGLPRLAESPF
Sequence of Gamma-aminobutyric acid receptor subunit alpha-1/alpha-2/beta-2/gamma-2 (P14867 whole entry): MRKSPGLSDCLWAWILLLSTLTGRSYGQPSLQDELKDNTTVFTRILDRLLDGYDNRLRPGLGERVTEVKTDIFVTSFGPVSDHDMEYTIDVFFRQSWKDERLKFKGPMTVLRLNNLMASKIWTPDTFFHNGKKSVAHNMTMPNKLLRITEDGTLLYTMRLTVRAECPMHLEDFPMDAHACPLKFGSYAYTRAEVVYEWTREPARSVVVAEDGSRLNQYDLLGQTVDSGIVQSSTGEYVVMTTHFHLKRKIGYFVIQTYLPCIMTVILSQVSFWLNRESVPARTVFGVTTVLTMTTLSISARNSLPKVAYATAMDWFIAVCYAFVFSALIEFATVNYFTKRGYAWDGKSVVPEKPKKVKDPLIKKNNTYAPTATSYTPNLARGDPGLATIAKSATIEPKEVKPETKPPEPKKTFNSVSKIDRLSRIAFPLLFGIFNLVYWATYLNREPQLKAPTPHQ
Sequence of Gamma-aminobutyric acid receptor subunit alpha-1/alpha-2/beta-2/gamma-2 (P47870 whole entry): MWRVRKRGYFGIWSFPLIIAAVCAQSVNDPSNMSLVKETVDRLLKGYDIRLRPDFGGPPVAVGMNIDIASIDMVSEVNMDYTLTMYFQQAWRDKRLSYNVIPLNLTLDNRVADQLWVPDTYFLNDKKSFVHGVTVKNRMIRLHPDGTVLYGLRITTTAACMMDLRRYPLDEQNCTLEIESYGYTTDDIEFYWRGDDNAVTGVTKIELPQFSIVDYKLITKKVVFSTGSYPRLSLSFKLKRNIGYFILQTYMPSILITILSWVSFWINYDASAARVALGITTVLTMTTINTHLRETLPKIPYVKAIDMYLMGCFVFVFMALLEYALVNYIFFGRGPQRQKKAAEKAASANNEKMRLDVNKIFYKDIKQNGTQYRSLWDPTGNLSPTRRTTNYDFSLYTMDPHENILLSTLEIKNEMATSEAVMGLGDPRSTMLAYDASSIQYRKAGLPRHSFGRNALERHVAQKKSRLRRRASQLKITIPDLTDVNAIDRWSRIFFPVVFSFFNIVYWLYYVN
Sequence of Gamma-aminobutyric acid receptor subunit alpha-1/alpha-2/beta-2/gamma-2 (P18507 whole entry): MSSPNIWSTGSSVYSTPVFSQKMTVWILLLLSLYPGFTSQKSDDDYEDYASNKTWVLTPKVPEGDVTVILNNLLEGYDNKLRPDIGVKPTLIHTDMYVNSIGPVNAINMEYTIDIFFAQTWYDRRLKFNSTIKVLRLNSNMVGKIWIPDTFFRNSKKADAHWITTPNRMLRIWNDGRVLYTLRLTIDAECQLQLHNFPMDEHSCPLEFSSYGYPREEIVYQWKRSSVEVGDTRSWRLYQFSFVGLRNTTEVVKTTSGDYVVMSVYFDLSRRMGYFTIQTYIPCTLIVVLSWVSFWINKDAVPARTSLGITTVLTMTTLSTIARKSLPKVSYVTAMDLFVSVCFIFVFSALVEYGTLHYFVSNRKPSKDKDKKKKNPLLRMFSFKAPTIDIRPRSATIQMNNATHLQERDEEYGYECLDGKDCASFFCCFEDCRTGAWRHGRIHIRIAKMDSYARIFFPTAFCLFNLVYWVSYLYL
Sequence of Gamma-aminobutyric acid receptor subunit alpha-1/alpha-2/beta-2/gamma-2 (P47869 whole entry): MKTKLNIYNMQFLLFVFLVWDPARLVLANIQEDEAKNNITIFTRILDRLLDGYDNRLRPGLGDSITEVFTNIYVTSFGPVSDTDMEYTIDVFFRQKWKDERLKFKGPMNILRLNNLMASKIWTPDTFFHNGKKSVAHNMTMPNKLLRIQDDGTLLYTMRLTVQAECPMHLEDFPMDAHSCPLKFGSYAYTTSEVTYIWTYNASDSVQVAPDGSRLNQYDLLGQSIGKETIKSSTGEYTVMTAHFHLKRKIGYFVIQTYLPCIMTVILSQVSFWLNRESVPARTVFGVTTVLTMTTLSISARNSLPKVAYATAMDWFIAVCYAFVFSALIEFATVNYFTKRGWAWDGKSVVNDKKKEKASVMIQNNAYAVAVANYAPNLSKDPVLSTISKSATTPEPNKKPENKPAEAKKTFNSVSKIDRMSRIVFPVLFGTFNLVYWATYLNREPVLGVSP

For `CCOC(=O)[C@H](CCc1ccccc1)N[C@@H](C)C(=O)N1[C@H](C(=O)O)C[C@@H]2CCC[C@@H]21`, the AC50 (as a rule, the concentration at which the activity in the assay is half-maximal) in test [1] was above 30 µM; in test [2], above 30 µM; in test [3], above 10 µM; in test [4] it was above 30 µM; in test [5], above 10 µM.

Turning to `CC(=O)Nc1ccc(O)cc1` [ACETAMINOPHEN], in test [6], the AC50 is above 30 µM.

The molecule `C=CCc1ccccc1OCC(O)CNC(C)C` (centres undefined) [ALPRENOLOL] registered a concentration at half-maximal activity (AC50) in test [6] above 0.3 µM.

For the molecule `COC(c1ccccc1)(c1ccccc1)[C@H](Oc1nc(C)cc(C)n1)C(=O)O` [AMBRISENTAN], the AC50 in test [6] is above 30 µM.

In turn, `CNC(=O)c1ccccc1Sc1ccc2c(/C=C/c3ccccn3)n[nH]c2c1` [AXITINIB] showed an AC50 in test [7] above 10 µM.

`CC[C@H]1OC(=O)[C@H](C)[C@@H](O[C@H]2C[C@@](C)(OC)[C@@H](O)[C@H](C)O2)[C@H](C)[C@@H](O[C@@H]2O[C@H](C)C[C@H](N(C)C)[C@H]2O)[C@](C)(O)C[C@@H](C)CN(C)[C@H](C)[C@@H](O)[C@]1(C)O` [AZITHROMYCIN]: the half-maximal activity concentration (AC50) is above 30 µM in test [1]; above 30 µM in test [2]; above 10 µM in test [3]; above 30 µM in test [4]; above 10 µM in test [5].

As for `Cc1ccc(-c2cc(C(F)(F)F)nn2-c2ccc(S(N)(=O)=O)cc2)cc1` [CELECOXIB], the concentration at half-maximal activity (AC50) was above 30 µM in test [1]; above 30 µM in test [2]; above 10 µM in test [3]; above 30 µM in test [4]; above 10 µM in test [5].

As to `CC1=C(C(=O)O)N2C(=O)[C@@H](NC(=O)[C@H](N)c3ccccc3)[C@H]2SC1` [CEPHALEXIN ANHYDROUS], the AC50 in test [1], in test [2] and in test [4] was above 30 µM in each case.

`Oc1c(Cl)cc(Cl)c2cccnc12` [CHLOROXINE] had a concentration at half-maximal activity (AC50) in test [6] above 30 µM.

As for `CN(C)CCC(c1ccc(Cl)cc1)c1ccccn1` (centres undefined) [CHLORPHENIRAMINE], the AC50 in test [1] was above 30 µM; in test [2], above 30 µM; in test [3], 5.52 µM; in test [4] it was above 30 µM; in test [5] it was 4.06 µM.

The molecule `CN(C)CCN1C(=O)c2ccccc2N(C)c2ccccc21` [DIBENZEPIN] gave a half-maximal activity concentration (AC50) in test [6] above 30 µM.

`N[C@H](C(=O)O)[C@H](O)c1ccc(O)c(O)c1` [DROXIDOPA] had an AC50 in test [6] above 30 µM.

`C[C@]12CC[C@@H]3c4ccc(O)cc4CC[C@H]3[C@@H]1C[C@@H](O)[C@@H]2O` [ESTRIOL]: in test [6], the AC50 was above 30 µM.

`O=C(O)c1cc(O)ccc1O` [GENTISIC ACID]: the AC50 in test [6] was above 30 µM.

`CCC1=C(C)CN(C(=O)NCCc2ccc(S(=O)(=O)NC(=O)N[C@H]3CC[C@H](C)CC3)cc2)C1=O` [GLIMEPIRIDE]: the AC50 in test [6] and in test [7] was above 30 µM each time.

Regarding `C[C@]12CCC(=O)C=C1CC[C@@H]1[C@@H]2[C@@H](O)C[C@@]2(C)[C@H]1CC[C@]2(O)C(=O)CO` [HYDROCORTISONE], the AC50 in test [1] is above 30 µM; in test [2], above 30 µM; in test [3], above 10 µM; in test [4], above 30 µM; in test [5], above 10 µM.

For `CCC(C)n1ncn(-c2ccc(N3CCN(c4ccc(OCC5COC(Cn6cncn6)(c6ccc(Cl)cc6Cl)O5)cc4)CC3)cc2)c1=O` (centres undefined) [ITRACONAZOLE], the concentration at half-maximal activity (AC50) in test [1] is above 30 µM; in test [2], above 30 µM; in test [3], above 10 µM; in test [4], above 30 µM; in test [5], above 10 µM.

With `CN1C(C(=O)Nc2ccccn2)=C(O)c2sc(Cl)cc2S1(=O)=O` [LORNOXICAM], in test [5], the AC50 is above 10 µM.

For `OCCN1C[C@H](O)[C@@H](O)[C@H](O)[C@H]1CO` [MIGLITOL], the concentration at half-maximal activity (AC50) in test [6] is above 30 µM.

The molecule `CC(=O)N[C@@H]1[C@@H](O)[C@H](O)[C@@H](CO)O[C@H]1O` [N-ACETYLGLUCOSAMINE] registered a half-maximal activity concentration (AC50) in test [6] above 30 µM.

Consider `O=C(CCNNC(=O)c1ccncc1)NCc1ccccc1` [NIALAMIDE], for which the concentration at half-maximal activity (AC50) in test [6] is above 30 µM.

`CC[C@H]1[C@@H](O)[C@@H]2[C@H](CC[C@]3(C)[C@@H]([C@H](C)CCC(=O)O)CC[C@@H]23)[C@@]2(C)CC[C@@H](O)C[C@@H]12` [OBETICHOLIC ACID] displayed a half-maximal activity concentration (AC50) in test [6] above 30 µM.

Molecule `CC[N+]1(C)[C@@H]2CC(OC(=O)[C@H](CO)c3ccccc3)C[C@H]1[C@@H]1O[C@@H]12` (some centres undefined) [OXITROPIUM] had an AC50 in test [6] above 30 µM.

`CC(C)(C)NC[C@H](O)COc1ccccc1C1CCCC1` [PENBUTOLOL] showed an AC50 in test [6] above 30 µM.

`CC(C)(S)[C@@H](N)C(=O)O` [PENICILLAMINE] returned an AC50 in test [6] above 30 µM.

As to `CS(=O)(=O)c1ccc(C2=C(c3ccccc3)C(=O)OC2)cc1` [ROFECOXIB], the AC50 in test [1] is above 30 µM; in test [6] it was above 30 µM; in test [2], above 30 µM; in test [3], above 10 µM; in test [4], above 30 µM; in test [5], above 10 µM.

Take `CO[C@H]1C[C@@H]2CC[C@@H](C)[C@@](O)(O2)C(=O)C(=O)N2CCCC[C@H]2C(=O)O[C@H]([C@H](C)C[C@@H]2CC[C@@H](O)[C@H](OC)C2)CC(=O)[C@H](C)/C=C(\C)[C@@H](O)[C@@H](OC)C(=O)[C@H](C)C[C@H](C)/C=C/C=C/C=C/1C` [SIROLIMUS]: the AC50 in test [1], in test [2] and in test [4] was above 30 µM each time.

On to `Cc1cn([C@H]2C=C[C@@H](CO)O2)c(=O)[nH]c1=O` [STAVUDINE], for which the half-maximal activity concentration (AC50) was above 30 µM in test [1]; above 30 µM in test [6]; above 30 µM in test [2]; above 10 µM in test [3]; above 30 µM in test [4]; above 10 µM in test [5].

In the case of `Clc1ccc2nsnc2c1NC1=NCCN1` [TIZANIDINE], the AC50 in test [1] was above 30 µM; in test [2], above 30 µM; in test [3], above 10 µM; in test [4], above 30 µM; in test [5], above 10 µM.

Turning to `CCOC(=O)[C@H](CCc1ccccc1)N[C@@H](C)C(=O)N1[C@H](C(=O)O)C[C@H]2CCCC[C@@H]21` [TRANDOLAPRIL], in test [6], the concentration at half-maximal activity (AC50) is above 30 µM.

`O=C(O[C@H]1C[C@H]2CC[C@@H](C1)[N+]21CCCC1)C(O)(c1ccccc1)c1ccccc1` [TROSPIUM] gave an AC50 in test [3] of 0.026 µM.

In test [6], `CCCCCCOc1nsnc1C1=CCCN(C)C1` [XANOMELINE] returned an AC50 above 30 µM.

Turning to `Cc1cn([C@H]2C[C@H](N=[N+]=[N-])[C@@H](CO)O2)c(=O)[nH]c1=O` [ZIDOVUDINE], the AC50 in test [1] was above 30 µM; in test [2], above 30 µM; in test [3], above 10 µM; in test [4], above 30 µM.
